This experiment has as its target human lung tryptase. Nature of the experiment: β-Tryptase In-Vitro Enzyme Assay. The class given is biochemical. The conditions noted are these: human lung tryptase 1 nM, substrate H-D-HHT-Ala-Arg-pNa 500 μM, pH 7.4, room temperature. How it is done:
The β-tryptase assay was conducted with human lung tryptase (Cortex Biochem #CP3033) in an aqueous buffer (10 mM Tris, 10 mM Hepes, 150 mM NaCl, 0.1% PEG 8000, pH 7.4) using the chromogenic substrate H-D-HHT-Ala-Arg-pNa. […] Percent inhibition was calculated by comparing the initial reaction velocity of samples without inhibitor to those with inhibitor. The initial reaction velocities were analyzed using Microsoft Excel.
Compound `COc1ccccc1/C=C\C(=O)N1CCC2(CC1)COc1ccc(CN)cc12` [Cpd 183, (Z)-1-(2-methoxy-phenylethenyl)carbonyl-5′-aminomethyl-spiro[piperidine-4,3′-(2H)-benzo[b]furan]] had an IC50 of 5800 nM.
Regarding `NCc1ccc2c(c1)C1(CCN(C(=O)c3ccc(Oc4cc(Cl)cc(Cl)c4)o3)CC1)CO2` [Cpd 149, 1-[5-(3,5-dichloro-phenoxy)-furan-2-yl]carbonyl-5′-aminomethyl-spiro[piperidine-4,3′-(2H)-benzo[b]furan]], the IC50 is 110 nM.
For `CSc1sc(C(=O)N2CCC3(CC2)COc2ccc(CN)cc23)c2c1C(=O)CCC2` [Cpd 155, 1-(3-methylthio-4-oxo-5,6,7-trihydro-4H-benzo[c]thien-1-yl)carbonyl-5′-aminomethyl-spiro[piperidine-4,3′-(2H)-benzo[b]furan]] the value was 12 nM; for `NCc1ccc2c(c1)C1(CCN(C(=O)/C=C/c3ccccc3)CC1)CO2` [Cpd 112, (E)-1-(phenylethenyl)carbonyl-5′-aminomethyl-spiro[piperidine-4,3′-(2H)-benzo[b]furan]], 180 nM; for `Cc1nn(-c2ccc(C(=O)N3CCC4(CC3)COc3ccc(CN)cc34)o2)c(C)c1Cl` [Cpd 221, 1-[5-(3,5-dimethyl-4-chloro-pyrazol-1-yl)-furan-2-yl]carbonyl-5′-aminomethyl-spiro[piperidine-4,3′-(2H)-benzo[b]furan]], 550 nM.
The figure for `CCCOc1sc(C(=O)N2CCC3(CC2)COc2ccc(CN)cc23)c(C)c1Br` [Cpd 303, 1-(3-methyl-4-bromo-5-propoxy-thien-2-yl)carbonyl-5′-aminomethyl-spiro[piperidine-4,3′-(2H)-benzo[b]furan]] is 3.7 nM; for `NCc1ccc2c(c1)C1(CCN(C(=O)c3cccc(NC(=O)Cc4cccs4)c3)CC1)CO2` [Cpd 19, 1-(3-thien-2-ylmethylcarbonylamino-phenyl)carbonyl-5′-aminomethyl-spiro[piperidine-4,3′-(2H)-benzo[b]furan]] it is 560 nM.
Compound `NCc1ccc2c(c1)C1(CCN(C(=O)c3ccc(Cl)c(Cl)c3)CC1)CO2` [Cpd 1, 1-(3,4-dichlorophenyl)carbonyl-5′-aminomethyl-spiro[piperidine-4,3′-(2H)-benzo[b]furan]] came in with an IC50 of 31 nM.
For `CS(=O)(=O)CS(=O)(=O)N1CC2(CCN(C(=O)c3ccc(C#Cc4ccccc4)o3)CC2)c2cc(CN)ccc21` [Cpd 348, 1-(5-phenylethynyl-furan-2-yl)carbonyl-1′-(methylsulfonylmethyl)sulfonyl-5′-aminomethyl-spiro[piperidine-4,3′-(2H)-indole]] the value was 24 nM.
Take `NCc1ccc2c(c1)C1(CCN(C(=O)c3cccc(Oc4ccccc4)c3)CC1)CO2` [Cpd 115, 1-(3-phenoxy-phenyl)carbonyl-5′-aminomethyl-spiro[piperidine-4,3′-(2H)-benzo[b]furan]]: the IC50 came out at 240 nM.
Compound `CCOC(=O)CC(NNC)C(=O)N1CC2(CCN(C(=O)c3ccc(C#Cc4ccccc4)o3)CC2)c2cc(CN)ccc21` (stereo not shown) [Cpd 332, 1-(5-phenylethynyl-furan-2-yl)carbonyl-1′-[4-ethoxy-2-(methylamino)amino-1,4-dioxo-butyl]-5′-aminomethyl-spiro[piperidine-4,3′-(2H)-indole]] yielded an IC50 of 28 nM. This IC50 lies about 8.6-fold lower than the previous one.
For `NCc1ccc2c(c1)C1(CCN(C(=O)c3csc(-c4cccnc4)n3)CC1)CO2` [Cpd 121, 1-(2-pyridin-3-yl-thiazol-4-yl)carbonyl-5′-aminomethyl-spiro[piperidine-4,3′-(2H)-benzo[b]furan]] the value was 510 nM; for `C/C(=C/c1ccccc1)C(=O)N1CCC2(CC1)COc1ccc(CN)cc12` [Cpd 181, (Z)-1-(1-methyl-2-phenylethenyl)carbonyl-5′-aminomethyl-spiro[piperidine-4,3′-(2H)-benzo[b]furan]], 1700 nM; for `COc1ccc(/C=C/C(=O)N2CCC3(CC2)COc2ccc(CN)cc23)cc1` [Cpd 185, (E)-1-(4-methoxy-phenylethenyl)carbonyl-5′-aminomethyl-spiro[piperidine-4,3′-(2H)-benzo[b]furan]], 1500 nM.
`NCc1ccc2c(c1)C1(CCN(C(=O)c3ccc(C(F)(F)F)o3)CC1)CO2` [Cpd 22, 1-(5-trifluoromethyl-furan-2-yl)carbonyl-5′-aminomethyl-spiro[piperidine-4,3′-(2H)-benzo[b]furan]] showed an IC50 of 2100 nM. This IC50 and that of the compound before are within 1.5-fold of each other.
For `CC(C)(C)c1ccc(C(=O)N2CCC3(CC2)COc2ccc(CN)cc23)s1` [Cpd 266, 1-(5-tert-butyl-thien-2-yl)carbonyl-5′-aminomethyl-spiro[piperidine-4,3′-(2H)-benzo[b]furan]] the value was 200 nM; for `NCc1ccc2c(c1)C1(CCN(C(=O)c3sc(SCc4ccccc4)c4c3CCCC4=O)CC1)CO2` [Cpd 214, 1-(3-benzylthio-4-oxo-5,6,7-trihydro-4H-benzo[c]thien-1-yl)carbonyl-5′-aminomethyl-spiro[piperidine-4,3′-(2H)-benzo[b]furan]], 6.5 nM.
For `CCCSc1sc(C(=O)N2CCC3(CC2)COc2ccc(CN)cc23)c2c1C(=O)CCC2` [Cpd 211, 1-(3-propylthio-4-oxo-5,6,7-trihydro-4H-benzo[c]thien-1-yl)carbonyl-5′-aminomethyl-spiro[piperidine-4,3′-(2H)-benzo[b]furan]] the value was 17 nM; for `NCc1ccc2c(c1)C1(CCN(C(=O)CC3c4ccccc4-c4ccccc43)CC1)CO2` [Cpd 355, 1-(9H-fluoren-9-ylmethyl)carbonyl-5′-aminomethyl-spiro[piperidine-4,3′-(2H)-benzo[b]furan]], 290 nM.
For `NCc1ccc2c(c1)C1(CCN(C(=O)c3ccc(F)c(Br)c3)CC1)CO2` [Cpd 31, 1-(3-bromo-4-fluoro-phenyl)carbonyl-5′-aminomethyl-spiro[piperidine-4,3′-(2H)-benzo[b]furan]] the value was 55 nM; for `Cc1nc2cc(C(=O)N3CCC4(CC3)COc3ccc(CN)cc34)ccc2n1-c1ccccc1` [Cpd 14, 1-(1-phenyl-2-methyl-benzoimidazol-5-yl)carbonyl-5′-aminomethyl-spiro[piperidine-4,3′-(2H)-benzo[b]furan]], 3700 nM; for `NCc1ccc2c(c1)C1(CCN(C(=O)c3ccc(Cl)c(F)c3)CC1)CO2` [Cpd 46, 1-(3-fluoro-4-chloro-phenyl)carbonyl-5′-aminomethyl-spiro[piperidine-4,3′-(2H)-benzo[b]furan]], 110 nM.
With `CNC(=N)c1ccc2c(c1)C1(CCN(C(=O)c3ccc(C#Cc4ccccc4)o3)CC1)CO2` [Cpd 310, 1-(5-phenylethynyl-furan-2-yl)carbonyl-5′-[methylamino(imino)methyl]-spiro[piperidine-4,3′-(2H)-benzo[b]furan]], the IC50 was 780 nM.
`NCc1ccc2c(c1)C1(CCN(S(=O)(=O)c3ccc(Cl)c(Cl)c3)CC1)CO2` [Cpd 280, 1-(3,4-dichlorophenyl)sulfonyl-5′-aminomethyl-spiro[piperidine-4,3′-(2H)-benzo[b]furan]] returned an IC50 of 220 nM.
`NCc1ccc2c(c1)C1(CCN(C(=O)c3ccc(OC(F)(F)F)cc3)CC1)CO2` [Cpd 61, 1-(4-trifluoromethoxy-phenyl)carbonyl-5′-aminomethyl-spiro[piperidine-4,3′-(2H)-benzo[b]furan]] had an IC50 of 7500 nM. This IC50 is about 34-fold higher than that of the compound before.
For `NCc1ccc2c(c1)C1(CCN(C(=O)c3ccc(CSc4ccc(C(F)(F)F)cn4)o3)CC1)CO2` [Cpd 151, 1-[5-(5-trifluoromethyl-pyridin-2-ylthiomethyl)-furan-2-yl]carbonyl-5′-aminomethyl-spiro[piperidine-4,3′-(2H)-benzo[b]furan]], the IC50 stood at 180 nM.
The figure for `CCC(C)Sc1sc(C(=O)N2CCC3(CC2)COc2ccc(CN)cc23)c2c1C(=O)CC(C)(C)C2` (stereo not shown) [Cpd 231, 1-(3-sec-butylthio-4-oxo-6,6-dimethyl-6,7-dihydro-5H-benzo[c]thien-1-yl)carbonyl-5′-aminomethyl-spiro[piperidine-4,3′-(2H)-benzo[b]furan]] is 91 nM; for `NCc1ccc2c(c1)C1(CCN(C(=O)c3ccc(C#Cc4ccccc4)o3)CC1)CN2CCC(=O)O` [Cpd 322, 1-(5-phenylethynyl-furan-2-yl)carbonyl-1′-(2-carboxy-ethyl)-5′-aminomethyl-spiro[piperidine-4,3′-(2H)-indole]] it is 450 nM.
In the case of `Cc1cccc(CCC(=O)N2CCC3(CC2)COc2ccc(CN)cc23)c1` [Cpd 98, 1-(3-methyl-phenethyl)carbonyl-5′-aminomethyl-spiro[piperidine-4,3′-(2H)-benzo[b]furan]], the IC50 stood at 1700 nM.
As for `NCCc1ccc2c(c1)C1(CCN(C(=O)c3ccc(C#Cc4ccccc4)o3)CC1)CO2` [Cpd 314, 1-(5-phenylethynyl-furan-2-yl)carbonyl-5′-aminoethyl-spiro[piperidine-4,3′-(2H)-benzo[b]furan]], inhibition was half-maximal at 1300 nM (IC50).
In turn, `NCc1ccc2c(c1)C1(CCN(C(=O)C3c4ccccc4Oc4ccccc43)CC1)CO2` [Cpd 292, 1-9H-xanthen-9-ylcarbonyl-5′-aminomethyl-spiro[piperidine-4,3′-(2H)-benzo[b]furan]] yielded a concentration for half-maximal inhibition (IC50) of 6100 nM.
For `Cc1cc(C(=O)N2CCC3(CC2)COc2ccc(CN)cc23)sc1Br` [Cpd 259, 1-(4-methyl-5-bromo-thien-2-yl)carbonyl-5′-aminomethyl-spiro[piperidine-4,3′-(2H)-benzo[b]furan]] the value was 55 nM.
`Cc1cc(C)nc(SCc2ccc(C(=O)N3CCC4(CC3)COc3ccc(CN)cc34)o2)n1` [Cpd 148, 1-[5-(4,6-dimethyl-pyrimidin-2-ylthiomethyl)-furan-2-yl]carbonyl-5′-aminomethyl-spiro[piperidine-4,3′-(2H)-benzo[b]furan]] gave an IC50 of 330 nM.
`COc1ccc(C(=O)N2CCC3(CC2)COc2ccc(CN)cc23)cc1Cl` [Cpd 28, 1-(3-chloro-4-methoxy-phenyl)carbonyl-5′-aminomethyl-spiro[piperidine-4,3′-(2H)-benzo[b]furan]] returned an IC50 of 120 nM.
